Converted amounts (≈) assume the structure as drawn.
Experiments:
Candida albicans [1] = experiment: Antifungal activity against Candida albicans CPCC400616 measured after 24 hrs by broth microdilution assay; type: functional
Candida albicans [2] = experiment: Antifungal activity against Candida albicans ATCC SC5314 measured after 24 hrs by broth microdilution assay; type: functional
[Candida] zeylanoides = Antifungal activity against Candida zeylanoides CMGCC2.3739 measured after 24 hrs by broth microdilution assay; type: functional; settings: Dujonia zeylanoides
Cryptococcus neoformans = experiment: Antifungal activity against Cryptococcus neoformans CMGCC2.3161 measured after 72 hrs by broth microdilution assay; type: functional
Pichia kudriavzevii = experiment: Antifungal activity against Candida krusei AS2.1045 measured after 24 hrs by broth microdilution assay; type: functional
Nakaseomyces glabratus = experiment: Antifungal activity against Candida glabrata measured after 24 hrs by broth microdilution assay; type: functional
Candida parapsilosis = experiment: Antifungal activity against Candida parapsilosis ATCC 22019 measured after 24 hrs by broth microdilution assay; type: functional; settings: Lodderomyces parapsilosis
Aspergillus fumigatus = experiment: Antifungal activity against Aspergillus fumigatus CMGCC3.7795 measured after 72 hrs by broth microdilution assay; type: functional
Candida albicans [3] = experiment: Antifungal activity against fluconazole-resistant Candida albicans CaR assessed as inhibition of microbial growth after 24 hrs by broth microdilution method; type: functional
Candida albicans [4] = experiment: Antifungal activity against fluconazole-resistant Candida albicans 17# assessed as inhibition of microbial growth after 24 hrs by broth microdilution method; type: functional
Candida albicans [5] = experiment: Antifungal activity against fluconazole-resistant Candida albicans 632 assessed as inhibition of microbial growth after 24 hrs by broth microdilution method; type: functional
Candida albicans [6] = experiment: Antifungal activity against fluconazole-resistant Candida albicans 901 assessed as inhibition of microbial growth after 24 hrs by broth microdilution method; type: functional
Candida albicans [7] = experiment: Antifungal activity against fluconazole-resistant Candida albicans 904 assessed as inhibition of microbial growth after 24 hrs by broth microdilution method; type: functional
Candida albicans [8] = experiment: Potency index, ratio of fluconazole MIC to test compound MIC for Candida albicans CPCC400616 measured after 24 hrs by broth microdilution assay; type: functional
Candida albicans [9] = experiment: Potency index, ratio of miconazole MIC to test compound MIC for Candida albicans CPCC400616 measured after 24 hrs by broth microdilution assay; type: functional
HL-60 = experiment: Cytotoxicity against human HL-60 cells assessed as reduction in cell viability incubated for 96 hrs by MTT assay; type: cell-based; settings: HL-60, 96 h
MDA-MB-231 = experiment: Cytotoxicity against human MDA-MB-231 cells assessed as reduction in cell viability incubated for 96 hrs by MTT assay; settings: MDA-MB-231, 96 h
PC-3 = experiment: Cytotoxicity against human PC3 cells assessed as reduction in cell viability incubated for 96 hrs by MTT assay; type: cell-based; settings: PC-3, 96 h, read-out: IC50
MCF-10A = experiment: Cytotoxicity against human MCF-10A cells assessed as reduction in cell viability incubated for 96 hrs by MTT assay; type: cell-based; settings: read-out: IC50
[10] = Hemolytic activity in rabbit RBC assessed as hemolysis ratio at 1 ug/ml measured after 3 hrs by microplate reader assay relative to control; type: ADME, cell-based, Oryctolagus cuniculus, Erythrocyte; settings: rabbit red blood cells (erythrocytes), at 1 µg/mL, read-out: Activity
[11] = Hemolytic activity in rabbit RBC assessed as hemolysis ratio at 2 ug/ml measured after 3 hrs by microplate reader assay relative to control; type: ADME, cell-based, Oryctolagus cuniculus, Erythrocyte; settings: rabbit red blood cells (erythrocytes), at 2 µg/mL, read-out: Activity
[12] = Hemolytic activity in rabbit RBC assessed as hemolysis ratio at 4 ug/ml measured after 3 hrs by microplate reader assay relative to control; type: ADME, cell-based, Oryctolagus cuniculus, Erythrocyte; settings: rabbit red blood cells (erythrocytes), at 4 µg/mL, read-out: Activity
[13] = Hemolytic activity in rabbit RBC assessed as hemolysis ratio at 8 ug/ml measured after 3 hrs by microplate reader assay relative to control; type: ADME, cell-based, Oryctolagus cuniculus, Erythrocyte; settings: rabbit red blood cells (erythrocytes), at 8 µg/mL, read-out: Activity
[14] = Hemolytic activity in rabbit RBC assessed as hemolysis ratio at 16 ug/ml measured after 3 hrs by microplate reader assay relative to control; type: ADME, cell-based, Oryctolagus cuniculus, Erythrocyte; settings: rabbit red blood cells (erythrocytes), at 16 µg/mL, read-out: Activity
[15] = Metabolic stability in mouse liver microsomes assessed as half life; type: ADME, Microsome
[16] = Metabolic stability in mouse liver microsomes assessed as clearance; type: ADME, Microsome; settings: read-out: CLH
Erythrocyte = experiment: Hemolytic activity in rabbit RBC measured after 3 hrs by microplate reader assay; type: ADME, cell-based, Oryctolagus cuniculus

SMILES	MIC (Candida albicans [1]) [µg/mL]	MIC (Candida albicans [2]) [µg/mL]	MIC ([Candida] zeylanoides) [µg/mL]	MIC (Cryptococcus neoformans) [µg/mL]	MIC (Pichia kudriavzevii) [µg/mL]	MIC (Nakaseomyces glabratus) [µg/mL]	MIC (Candida parapsilosis) [µg/mL]	MIC (Aspergillus fumigatus) [µg/mL]	MIC (Candida albicans [3]) [µg/mL]	MIC (Candida albicans [4]) [µg/mL]	MIC (Candida albicans [5]) [µg/mL]	MIC (Candida albicans [6]) [µg/mL]	MIC (Candida albicans [7]) [µg/mL]	also measured
Cc1cccc(C)c1[Se]C(Cn1ccnc1)c1ccc(F)cc1F (stereo not given)	0.03 (≈ 0.0767 µM)	0.02 (≈ 0.0511 µM)	0.13 (≈ 0.332 µM)	0.25 (≈ 0.639 µM)	0.02 (≈ 0.0511 µM)	0.5 (≈ 1.28 µM)	0.06 (≈ 0.153 µM)	8 (≈ 20.4 µM)	8	0.25	1	2	2	Ratio (Candida albicans [8]): 8; Ratio (Candida albicans [9]): 8
Clc1ccc(C(Cn2ccnc2)[Se]Cc2ccccc2Cl)c(Cl)c1 (stereo not given)	0.02 (≈ 0.045 µM)	0.01 (≈ 0.0225 µM)	1 (≈ 2.25 µM)	0.25 (≈ 0.562 µM)	0.13 (≈ 0.292 µM)	0.5 (≈ 1.12 µM)	0.13 (≈ 0.292 µM)	2 (≈ 4.5 µM)	0.06	0.13	1	0.5	0.25	IC50 (HL-60): 1.02 µM; IC50 (MDA-MB-231): 9.06 µM; IC50 (PC-3): 13.1 µM; IC50 (MCF-10A): 30.2 µM; hemolysis at 3 h, 1 ug/ml [10]: 0%; hemolysis at 3 h, 2 ug/ml [11]: 3.15%; hemolysis at 3 h, 4 ug/ml [12]: 58.9%; hemolysis at 3 h, 8 ug/ml [13]: 93.2%; hemolysis at 3 h, 16 ug/ml [14]: 98.2%; half-life [15]: 4.2 min; CLint scaled [16]: 1310 mL/min/kg; MHC (Erythrocyte): 4 µg/mL

From ChEMBL document CHEMBL4813985, “Lead optimization generates selenium-containing miconazole CYP51 inhibitors with improved pharmacological profile for the treatment of fungal infections” (Eur J Med Chem, 2021)
